Our source for the IC50 values is patent US12378224B2 (Dong-A Socio Holdings Co., Ltd., priority 2016, dated 2025).

As a reminder, the IC50 is the concentration that gives 50% inhibition. High values mean a need for much substance, low ones inhibition by little substance.

Each structure is given as a SMILES string.

The target in the assay is human c-MER catalytic domain (Homo sapiens (Human), UniProt Q12866). Briefly: TR-FRET Kinase Activity Biochemical Assay (LanthaScreen). To be noted: 10 uM ATP, 1 hour, kinase not given. A digest of the protocol: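 Recombinant human c-MER catalytic domain phosphorylated fluorescein-labeled poly-GT substrate. The reaction was stopped with 10 mM EDTA, then 2 nM Tb-labeled anti-phosphotyrosine antibody was added for 30 min. Kinase activity was taken from the 495/520 nm TR-FRET emission ratio after 340 nm excitation.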
human c-MER catalytic domain, sequence (Q12866 587-858): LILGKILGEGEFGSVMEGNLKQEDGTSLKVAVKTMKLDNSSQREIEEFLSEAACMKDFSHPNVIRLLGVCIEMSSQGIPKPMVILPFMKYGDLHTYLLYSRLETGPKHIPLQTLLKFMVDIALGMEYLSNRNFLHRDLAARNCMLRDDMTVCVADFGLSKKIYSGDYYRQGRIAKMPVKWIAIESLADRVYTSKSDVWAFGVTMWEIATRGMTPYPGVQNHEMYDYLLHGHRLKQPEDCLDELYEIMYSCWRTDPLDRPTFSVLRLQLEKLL
For orientation: TR-FRET usually uses a lanthanide donor and a delayed reading to cut background.
Regarding `Cn1cc(-c2cnc(N)c(C(=O)N[C@@H]3CCN(C(=O)c4ccc(-c5ccc(F)cc5Cl)cc4)C3)n2)cn1` [Example 745, (R)-3-amino-N-(1-(2′-chloro-4′-fluoro-[1,1′-biphenyl]-4-carbonyl)pyrrolidin-3-yl)-6-(1-methyl-1H-pyrazol-4-yl)pyrazine-2-carboxamide], the concentration for half-maximal inhibition (IC50) was in the range of 10 to 100 nM.
As to `Cn1cc(-c2cnc(N)c(C(=O)N[C@@H]3CCN(C(=O)Oc4cccc(-c5cnn(Cc6ccccc6)c5)c4)C3)c2)cn1` [Example 283, 3-(1-benzyl-1H-pyrazol-4-yl)phenyl (R)-3-(2-amino-5-(1-methyl-1H-pyrazol-4-yl)nicotinamido)pyrrolidine-1-carboxylate], the half-maximal inhibitory concentration (IC50) lay within 100 to 1000 nM.
On to `C[C@H]1CCCC[C@H]1OC(=O)N1CC[C@@H](NC(=O)c2cc(-c3cnn(C)c3)cnc2N)C1` [Example 108, (1R,2S)-2-methylcyclohexyl (R)-3-(2-amino-5-(1-methyl-1H-pyrazol-4-yl)nicotinamido)pyrrolidine-1-carboxylate], for which the IC50 is above 1000 nM.
With `CC(=O)n1ccc2cc(C(=O)N3CC[C@@H](NC(=O)c4cc(-c5cnn(C)c5)cnc4N)C3)ccc21` [Example 513, (R)—N-(1-(1-acetyl-1H-indole-5-carbonyl)pyrrolidin-3-yl)-2-amino-5-(1-methyl-1H-pyrazol-4-yl)nicotinamide], the IC50 lay in the range of 100 to 1000 nM.
`CN1CCC(NCc2ccc(-c3ccc(C(=O)N4CC[C@@H](NC(=O)c5cc(-c6cnn(C)c6)cnc5N)C4)cc3)cc2)CC1` [Example 549, (R)-2-amino-5-(1-methyl-1H-pyrazol-4-yl)-N-(1-(4′-(((1-methylpiperidin-4-yl)amino)methyl)-[1,1′-biphenyl]-4-carbonyl)pyrrolidin-3-yl)nicotinamide]: the IC50 lay in the range of 100 to 1000 nM.
The molecule `Cn1cc(-c2cnc(N)c(C(=O)N[C@@H]3CCN(C(=O)Oc4cccc(-c5cnn(CCN6CCCC6)c5)c4)C3)c2)cn1` [Example 286, 3-(1-(2-(pyrrolidin-1-yl)ethyl)-1H-pyrazol-4-yl)phenyl (R)-3-(2-amino-5-(1-methyl-1H-pyrazol-4-yl)nicotinamido)pyrrolidine-1-carboxylate] registered a half-inhibitory concentration (IC50) of 100 to 1000 nM.
Take `Cn1cc(-c2cnc(N)c(C(=O)N[C@@H]3CCN(C(=O)Oc4cccc(-c5cccc(CN6CCC[C@@H](N)C6)c5)c4)C3)c2)cn1` [Example 338, 3′-(((R)-3-aminopiperidin-1-yl)methyl)-[1,1′-biphenyl]-3-yl (R)-3-(2-amino-5-(1-methyl-1H-pyrazol-4-yl)nicotinamido)pyrrolidine-1-carboxylate]: the concentration for half-maximal inhibition (IC50) was in the range of 10 to 100 nM.
Molecule `Cn1cc(-c2cnc(N)c(C(=O)N[C@@H]3CCN(C(=O)Oc4cccc(-c5ccc(CN6CCC[C@H](N)C6)cc5)c4)C3)c2)cn1` [Example 332, 4′-(((S)-3-aminopiperidin-1-yl)methyl)-[1,1′-biphenyl]-3-yl (R)-3-(2-amino-5-(1-methyl-1H-pyrazol-4-yl)nicotinamido)pyrrolidine-1-carboxylate] gave an IC50 of 10 to 100 nM.
Turning to `Cn1cc(-c2cnc(N)c(C(=O)N[C@@H]3CCN(C(=O)c4cn(-c5ccccc5)nc4C(F)(F)F)C3)c2)cn1` [Example 516, (R)-2-amino-5-(1-methyl-1H-pyrazol-4-yl)-N-(1-(1-phenyl-3-(trifluoromethyl)-1H-pyrazole-4-carbonyl)pyrrolidin-3-yl)nicotinamide], the 50% inhibitory concentration (IC50) is above 1000 nM.
The molecule `CN1CCN(Cc2ccc(Oc3ccc(OC(=O)N4CC[C@@H](NC(=O)c5cc(-c6cnn(C)c6)cnc5N)C4)cc3)cc2)CC1` [Example 113, 4-(4-((4-methylpiperazin-1-yl)methyl)phenoxy)phenyl (R)-3-(2-amino-5-(1-methyl-1H-pyrazol-4-yl)nicotinamido)pyrrolidine-1-carboxylate] registered a half-maximal inhibitory concentration (IC50) of 100 to 1000 nM.
